Series [1] relates to siRNA. Nature of the series: Bandshift (electro-mobility shift) assay, siRNA binding. The settings on record: preparation containing free SMCC-protamine. On the procedure: We analysed the siRNA binding capacity of these different conjugations by our routine bandshift assays (FIG. 40A-F).
The principle of genetic fusion between cell-determining targeting moiety and the electrostatic siRNA binder protamine such as presented in Song et al. was evaluated by applying this strategy to in a variation to target e.g. leukemic blasts (FIG. 48). The well-known anti-CD33 receptor antibody gemtuzumab was expressed with (FIG. 51) and without a direct genetic fusion to protamine as a siRNA carrier.

A short description of series [2]: Bandshift assay, SM-1/RF binding. The settings on record: free SMCC-protamine present; listed as Not SMCC-protamine depleted CD20-mAB-preparations.
From the text: Subsequently, we performed the same experiments for the binding between SM-1/RF and two carrier systems, rituximab (CD20)-protamine and the reliable cetuximab (EGFR)-protamine.
A short description of series [3]: Bandshift assay, ibrutinib-Cy3.5 binding. The settings on record: free protamine-SMCC present; listed as Not protamine-SMCC depleted αCD20-mAB-preparations.
Series [4] is described as follows: Cell-free vesicle/nanoparticle formation on chamber slides, microscopy. The class given is physicochemical. From the text: Based upon these measurements, we hypothesized that the antibody-protamine/free SMCC-protamine/siRNA complexes form outside cells and independently of a cellular context. […]
In detail, the nanostructures resemble a spheroid shape of micrometre size, formed by the three components mAB-SMCC-protamine, unconjugated SMCC-protamine and the Alexa488-labeled siRNA (FIG. 37). The structures are verified by fluorescence microscopy and laser scan confocal microscopy. It became evident that the spheroid structures are completely filled with Alexa488 signals from the siRNA compound.

Series [5] concerns HBL-1 cells. Nature of the series: Colony formation assay, HBL-1. The class given is cell-based. On the procedure:
Next, we planned functional assays for identifying the effectivity of the antibody-inhibitor-complexes. DLBCL tumor cells were seeded in methylcellulose to form anchorage-free colony growth as a substitute marker for tumorigenicity. Assays were treated with combinations of antibody-inhibitor complexes and compared with appropriate control groups.
This colony-assay is used for quantification of anchorage-independent clonal cell growth and is a standard in vitro surrogate for tumorigenicity in vivo.

The test system of series [6] is HBL-1 DLBCL-cells. Nature of the series: NSG-HBL1 xenograft model. The class given is in vivo. The settings on record: after treatment start, groups of 10 mice. On the procedure:
A. Tumor growth and treatment regimen of the NSG-HBL1 xenograft model. After transplantation, tumors were grown to 200 mm^3, before treatment was started twice a week intraperitoneally (i.p.). […] On every treatment day, twice a week, tumor volumes were assessed by caliper measurements. […] C. Survival curves of the treatment versus control groups.

Bounds are passed on as bounds.

In the case of “CD20-mAB rituximab-protamine/P conjugates: anti-CD20 antibody rituximab conjugated via sulfo-SMCC to protamine, containing free SMCC-protamine”, the “siRNA bound per mol of antibody carrier” value in series [1] is given as 8 mol; in series [1] (listed as Anti-CD20 mAB conjugated to SMCC-protamine), “around 16 mol”; in series [1] (listed as rituximab-protamine), “about 8 mol”. Also, in series [2], the “SM-1/RF complexed per mol of carrier mAB” value is more than 32 mol. Further, the “ibrutinib-Cy3.5 complexed per mol of carrier mAB” value in series [3] is reported as more than 32 mol. The “Microscopic analysis” value in series [4] is on record as “No visible”.
`C=CC(=O)N1CCC[C@@H](n2nc(-c3ccc(Oc4ccccc4)cc3)c3c(N)ncnc32)C1` [ibrutinib, 1-[(3R)-3-[4-amino-3-(4-phenoxyphenyl)pyrazolo[3,4-d]pyrimidin-1-yl]piperidin-1-yl]prop-2-en-1-one]: the “nanoparticle/vesicle formation, cell-free” value in series [4] (listed as uncharged ibrutinib) was “not with uncharged ibrutinib”. In addition, the “colony formation” value in series [5] was “much lesser degree”. Further, the “day by which all/last mice had to be sacrificed” value in series [6] worked out at 20 days.
For rituximab: anti-CD20 antibody, the “colony formation” value in series [5] was “only a mild effect on colony growth”. Also, the “day by which all/last mice had to be sacrificed” value in series [6] was not above 16 days.

These data come from US20240316213A1, “ANTIBODY-PROTAMINE FUSIONS AS TARGETING COMPOUNDS OF A PROTAMINE-BASED NANOPARTICLE” (Universität Münster, priority 2021, published 2024).
